# Measured values taken from PubChem BioAssay (NCI).
#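 Grown in 96-well plates, cells were treated for 48 hours with each compound at five concentrations. Insufficient inhibition: endpoint recorded as highest concentration tested. The concentration for 50% growth inhibition is given as GI50. Definition used: TGI = concentration required for complete inhibition of growth.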
# Key:
# Assay in all cases: growth of human tumour cells (NCI), 48 h
# 786-0 renal = system: 786-0 renal
# A498 renal = system: A498 renal
# A549 NSCLC = system: A549 NSCLC
# ACHN renal = system: ACHN renal
# BT-549 breast = system: BT-549 breast
# CAKI-1 renal = system: CAKI-1 renal
# CCRF-CEM leukemia = system: CCRF-CEM leukemia
# COLO 205 colon = system: COLO 205 colon
# DU-145 prostate = system: DU-145 prostate
# EKVX NSCLC = system: EKVX NSCLC
# HCC-2998 colon = system: HCC-2998 colon
# HCT-116 colon = system: HCT-116 colon
# HCT-15 colon = system: HCT-15 colon
# HL-60(TB) leukemia = system: HL-60(TB) leukemia
# HOP-62 NSCLC = system: HOP-62 NSCLC
# HS 578T breast = system: HS 578T breast
# HT29 colon = system: HT29 colon
# IGROV1 ovarian = system: IGROV1 ovarian
# K-562 leukemia = system: K-562 leukemia
# KM12 colon = system: KM12 colon
# LOX IMVI melanoma = system: LOX IMVI melanoma
# M14 melanoma = system: M14 melanoma
# MALME-3M melanoma = system: MALME-3M melanoma
# MCF7 breast = system: MCF7 breast
# MDA-MB-231 breast = system: MDA-MB-231 breast
# MDA-MB-435 = system: MDA-MB-435
# MOLT-4 leukemia = system: MOLT-4 leukemia
# NCI-H226 lung = system: NCI-H226 lung
structure (smiles),measurement,setting,value
Cc1c(C(=O)O)n(-c2ccc(Cl)cc2)c2ncnc(N)c12,GI50,786-0 renal,21.1 µM
same,TGI,786-0 renal,56.2 µM
same,GI50,A498 renal,19.4 µM
same,TGI,A498 renal,52.2 µM
same,GI50,A549 NSCLC,17.4 µM
same,TGI,A549 NSCLC,65.3 µM
same,GI50,ACHN renal,22.6 µM
same,TGI,ACHN renal,96.9 µM
same,GI50,BT-549 breast,21.7 µM
same,TGI,BT-549 breast,58.7 µM
same,GI50,CAKI-1 renal,19.2 µM
same,TGI,CAKI-1 renal,67.8 µM
same,GI50,CCRF-CEM leukemia,27.8 µM
same,TGI,CCRF-CEM leukemia,90.5 µM
same,GI50,COLO 205 colon,21.7 µM
same,TGI,COLO 205 colon,43.3 µM
same,GI50,DU-145 prostate,24.1 µM
same,TGI,DU-145 prostate,75.4 µM
same,GI50,EKVX NSCLC,17.2 µM
same,TGI,EKVX NSCLC,56.1 µM
same,GI50,HCC-2998 colon,23.6 µM
same,TGI,HCC-2998 colon,57.1 µM
same,GI50,HCT-116 colon,20.5 µM
same,TGI,HCT-116 colon,47.7 µM
same,GI50,HCT-15 colon,24.1 µM
same,TGI,HCT-15 colon,96.9 µM
same,GI50,HL-60(TB) leukemia,37.3 µM
same,TGI,HL-60(TB) leukemia,> 100 µM
same,GI50,HOP-62 NSCLC,20 µM
same,TGI,HOP-62 NSCLC,58.6 µM
same,GI50,HS 578T breast,23.1 µM
same,TGI,HS 578T breast,69.6 µM
same,GI50,HT29 colon,22.6 µM
same,TGI,HT29 colon,51 µM
same,GI50,IGROV1 ovarian,14.6 µM
same,TGI,IGROV1 ovarian,> 100 µM
same,GI50,K-562 leukemia,21.4 µM
same,TGI,K-562 leukemia,> 100 µM
same,GI50,KM12 colon,29.9 µM
same,TGI,KM12 colon,> 100 µM
same,GI50,LOX IMVI melanoma,30.1 µM
same,TGI,LOX IMVI melanoma,> 100 µM
same,GI50,M14 melanoma,22.6 µM
same,TGI,M14 melanoma,53.6 µM
same,GI50,MALME-3M melanoma,31.5 µM
same,TGI,MALME-3M melanoma,75.7 µM
same,GI50,MCF7 breast,> 100 µM
same,TGI,MCF7 breast,> 100 µM
same,GI50,MDA-MB-231 breast,18 µM
same,TGI,MDA-MB-231 breast,70.1 µM
same,GI50,MDA-MB-435,33.2 µM
same,TGI,MDA-MB-435,> 100 µM
same,GI50,MOLT-4 leukemia,31.2 µM
same,TGI,MOLT-4 leukemia,> 100 µM
same,GI50,NCI-H226 lung,14.9 µM
same,TGI,NCI-H226 lung,50.2 µM
